This passage reports melting point results from patent US7022696B2, “Piperazino-derivatives and their use as PDE4 inhibitor” (Altana Pharma AG, priority 2001, dated 2006).

For the molecule `COc1ccc(C2=NN(c3ccc(C(=O)N4CCN(c5c(Cl)cncc5Cl)CC4)cc3)C(=O)[C@@H]3CC=CC[C@H]23)cc1OC` [Compound 15, (4aS,8aR)-2-(4-{1-[4-(3,5-Dichloropyridin-4-yl)-piperazin-1-yl]-methanoyl}-phenyl)-4-(3,4-dimethoxyphenyl)-4a,5,8,8a-tetrahydro-2H-phthalazin-1-one], the melting point lay within 137 to 139 °C.
The value for `COc1ccc(C2=NN(c3ccc(C(=O)N4CCN(CC(=O)N(C)C)CC4)cc3)C(=O)[C@@H]3CC=CC[C@H]23)cc1OC.Cl` was 93 to 94 °C.
For `CCOc1ccc(C2=NN(c3ccc(C(=O)N4CCN(c5ccncc5)CC4)cc3)C(=O)[C@@H]3CC=CC[C@H]23)cc1OCC.Cl` [Compound 27, (4aS,8aR)-4-(3,4-Diethoxy-phenyl)-2-{4-[1-(4-pyridin-4-yl-piperazin-1-yl)-methanoyl]-phenyl}-4a,5,8,8a-tetrahydro-2H-phthalazin-1-one hydrochloride] the value was 164 to 167 °C; for `CCOc1ccc(C2=NN(c3ccc(C(=O)N4CCN(CC5CCCO5)CC4)cc3)C(=O)[C@@H]3CC=CC[C@H]23)cc1OCC.Cl` (stereo partly drawn) [Compound 23, (4aS,8aR)-4-(3,4-Diethoxy-phenyl)-2-(4-{1-[4-(tetrahydro-furan-2-ylmethyl)-piperazin-1-yl]-methanoyl}-phenyl)-4a,5,8,8a-tetrahydro-2H-phthalazin-1-one hydrochloride], 131 to 133 °C.
With `CCOc1ccc(C2=NN(c3ccc(C(=O)N4CCN(c5cnn(-c6ccccc6)c(=O)c5Cl)CC4)cc3)C(=O)[C@@H]3CC=CC[C@H]23)cc1OCC` [Compound 12, (4aS,8aR)-2-{4-[4-(5-Chloro-6-oxo-1-phenyl-1,6-dihydro-pyridazin-4-yl)-piperazine-1-carbonyl]-phenyl}-4-(3,4-diethoxy-phenyl)-4a,5,8,8a-tetrahydro-2H-phthalazin-1-one], the melting point fell in the range of 148 to 151 °C.
In the case of `CCOc1ccc(C2=NN(c3ccc(S(=O)(=O)N4CCN(c5ccccn5)CC4)cc3)C(=O)[C@H]3CC=CC[C@@H]23)cc1OCC` (relative stereo) [Compound 6, (cis)-4-(3,4-Diethoxyphenyl)-2-[4-(4-pyridin-2-yl-piperazine-1-sulfonyl)-phenyl]-4a,5,8,8a-tetrahydro-2H-phthalazin-1-one], the melting point is 181 to 182 °C.
The value for `CCOc1ccc(C2=NN(c3ccc(C(=O)N4CCN(c5cc(C)nc6ccccc56)CC4)cc3)C(=O)[C@@H]3CC=CC[C@H]23)cc1OCC.Cl` [Compound 26, (4aS,8aR)-4-(3,4-Diethoxy-phenyl)-2-(4-{1-[4-(2-methyl-quinolin-4-yl)-piperazin-1-yl]-methanoyl}-phenyl)-4a,5,8,8a-tetrahydro-2H-phthalazin-1-one hydrochloride] was 203 to 206 °C (dec.); that for `COc1ccc(C2=NN(c3ccc(C(=O)N4CCN(C/C=C/c5ccccc5)CC4)cc3)C(=O)[C@@H]3CC=CC[C@H]23)c2c1OC(C)(C)C2.Cl` [Compound 8, (4aS,8aR)-4-(7-methoxy-2,2-dimethyl-2,3-dihydro-benzofuran-4-yl)-2-(4-{1-[4-((E)-3-phenyl-allyl)-piperazin-1-yl]-methanoyl}-phenyl)-4a,5,8,8a-tetrahydro-2H-phthalazin-1-one hydrochloride] was 230 to 231 °C; that for `COc1ccc(C2=NN(c3ccc(C(=O)N4CCN(CCN5CCOCC5)CC4)cc3)C(=O)[C@@H]3CC=CC[C@H]23)c2c1OC(C)(C)C2.Cl.Cl` [Compound 20, (4aS,8aR)-4-(7-Methoxy-2,2-dimethyl-2,3-dihydro-benzofuran-4-yl)-2-(4-{1-[4-(2-morpholin-4-yl-ethyl)-piperazin-1-yl]-methanoyl}-phenyl)-4a,5,8,8a-tetrahydro-2H-phthalazin-1-one dihydrochloride] was 271 °C (dec.).
As to `COc1ccc(C2=NN(c3ccc(C(=O)N4CCN(CC(=O)N5CCOCC5)CC4)cc3)C(=O)[C@@H]3CC=CC[C@H]23)cc1OC.Cl`, the melting point is 168 to 169 °C.
For `CCOc1ccc(C2=NN(c3ccc(C(=O)N4CCN(C5CCN(C)CC5)CC4)cc3)C(=O)[C@@H]3CC=CC[C@H]23)cc1OCC.Cl.Cl` [Compound 28, (4aS,8aR)-4-(3,4-Diethoxy-phenyl)-2-(4-{1-[4-(1-methyl-piperidin-4-yl)-piperazin-1-yl]-methanoyl}-phenyl)-4a,5,8,8a-tetrahydro-2H-phthalazin-1-one dihydrochloride] the value was 275 °C (dec.).
The value for `CCOc1ccc(C2=NN(c3ccc(C(=O)N4CCN(c5ccccn5)CC4)cc3)C(=O)[C@@H]3CC=CC[C@H]23)cc1OCC` [Compound 2, (4aS,8aR)-4-(3,4-Diethoxyphenyl)-2-{4-[1-(4-pyridin-2-yl-piperazin-1-yl)-methanoyl]-phenyl}-4a,5,8,8a-tetrahydro-2H-phthalazin-1-one] was 183 to 184 °C; that for `COc1ccc(C2=NN(c3ccc(C(=O)N4CCN(CCCN(C)C)CC4)cc3)C(=O)[C@@H]3CC=CC[C@H]23)cc1OC.Cl.Cl` [Compound 13, (4aS,8aR)-4-(3,4-Dimethoxyphenyl)-2-(4-{1-[4-(3-dimethylamino-propyl)-piperazin-1-yl]-methanoyl}-phenyl)-4a,5,8,8a-tetrahydro-2H-phthalazin-1-one dihydrochloride] was 223 to 226 °C; that for `COc1ccc(C2=NN(c3ccc(C(=O)N4CCN(C(=O)c5ccco5)CC4)cc3)C(=O)C3CC=CCC23)c2c1OC(C)(C)C2` [Compound 9, (4aS,8aR)-2-(4-{1-[4-(1-furan-2-yl-methanoyl)-piperazin-1-yl]-methanoyl}-phenyl)-4-(7-methoxy-2,2-dimethyl-2,3-dihydrobenzofuran-4-yl)-4a,5,8,8a-tetrahydro-2-phthalazin-1-one] was 138 to 140 °C.
Turning to `COc1ccc(C2=NN(Cc3ccc(C(=O)N4CCN(CCCN(C)C)CC4)cc3)C(=O)[C@H]3CC=CC[C@@H]23)c2c1OC(C)(C)C2.Cl.Cl` (relative stereo), the melting point was in the range of 247 to 249 °C.
For the molecule `CCOc1ccc(C2=NN(c3ccc(C(=O)N4CCN(CCN5CCOCC5)CC4)cc3)C(=O)[C@@H]3CC=CC[C@H]23)cc1OCC.Cl.Cl`, the melting point was 255 °C (dec.).
For `CCOc1ccc(C2=NN(c3ccc(C(=O)N4CCN(C(=O)c5ccco5)CC4)cc3)C(=O)[C@@H]3CC=CC[C@H]23)cc1OCC` [Compound 4, (4aS,8aR)-4-(3,4-Diethoxyphenyl)-2-(4-{1-[4-(1-furan-2-yl-methanoyl)-piperazin-1-yl]-methanoyl}-phenyl)-4a,5,8,8a-tetrahydro-2H-phthalazin-1-one], the melting point lay within 114 to 115 °C.
With `COc1ccc(C2=NN(c3ccc(C(=O)N4CCN(CCCN(C)C)CC4)cc3)C(=O)[C@@H]3CC=CC[C@H]23)c2c1OC(C)(C)C2.Cl.Cl` [Compound 11, (4aS,8aR)-2-(4-{1-[4-(3-Dimethylamino-propyl)-piperazin-1-yl]-methanoyl}-phenyl)-4-(7-methoxy-2,2-dimethyl-2,3-dihydro-benzofuran-4-yl)-4a,5,8,8a-tetrahydro-2H-phthalazin-1-one dihydrochloride], the melting point was 262 °C (dec.).
For `COc1ccc(C2=NN(c3ccc(C(=O)N4CCN(c5nc(-c6ccccc6C)ns5)CC4)cc3)C(=O)[C@@H]3CC=CC[C@H]23)cc1OC.Cl` [Compound 19, (4aS,8aR)-4-(3,4-Dimethoxyphenyl)-2-(4-{1-[4-(3-o-tolyl-1,2,4-thiadiazol-5-yl)-piperazin-1-yl]-methanoyl}-phenyl)-4a,5,8,8a-tetrahydro-2H-phthalazin-1-one hydrochloride], the melting point fell in the range of 115 to 118 °C.
Turning to `CCOc1ccc(C2=NN(c3ccc(C(=O)N4CCN(CCCN(C)C)CC4)cc3)C(=O)[C@@H]3CC=CC[C@H]23)cc1OCC.Cl.Cl`, the melting point was 248 °C (dec.).
Molecule `CCOc1ccc(C2=NN(c3ccc(C(=O)N4CCN(C=O)CC4)cc3)C(=O)[C@@H]3CC=CC[C@H]23)cc1OCC` [Compound 5, 4-(1-{4-[(4aS,8aR)-4-(3,4-Diethoxyphenyl)-1-oxo-4a,5,8,8a-tetrahydro-1H-phthalazin-2-yl]-phenyl}-methanoyl)-piperazine-1-carbaldehyde] displayed a melting point of 143 to 144 °C.
`CCOc1ccc(C2=NN(c3ccc(C(=O)N4CCN(c5cccc6[nH]ccc56)CC4)cc3)C(=O)[C@@H]3CC=CC[C@H]23)cc1OCC.Cl` [Compound 21, (4aS,8aR)-4-(3,4-Diethoxy-phenyl)-2-(4-{1-[4-(1H-indol-4-yl)-piperazin-1-yl]-methanoyl}-phenyl)-4a,5,8,8a-tetrahydro-2H-phthalazin-1-one hydrochloride] showed a melting point of 142 to 145 °C.
The molecule `COc1ccc(C2=NN(c3ccc(C(=O)N4CCN(CC(=O)N5CCCC5)CC4)cc3)C(=O)[C@@H]3CC=CC[C@H]23)cc1OC.Cl` gave a melting point of 160 to 161 °C.
Consider `CCOc1ccc(C2=NN(c3ccc(C(=O)N4CCN(Cc5ccncc5)CC4)cc3)C(=O)[C@@H]3CC=CC[C@H]23)cc1OCC.Cl.Cl` [Compound 25, (4aS,8aR)-4-(3,4-Diethoxy-phenyl)-2-{4-[1-(4-pyridin-4-ylmethyl-piperazin-1-yl)-methanoyl]-phenyl}-4a,5,8,8a-tetrahydro-2H-phthalazin-1-one dihydrochloride], for which the melting point is 83 to 85 °C.
In turn, `COc1ccc(C2=NN(c3ccc(C(=O)N4CCN(c5ccccc5)CC4)cc3)C(=O)[C@@H]3CC=CC[C@H]23)c2c1OC(C)(C)C2` [Compound 10, (4aS,8aR)-4-(7-Methoxy-2,2-dimethyl-2,3-dihydro-benzofuran-4-yl)-2-{4-[1-(4-phenyl-piperazin-1-yl)-methanoyl]-phenyl}-4a,5,8,8a-tetrahydro-2H-phthalazin-1-one] came in with a melting point of 185 to 186 °C.
The molecule `CCOc1ccc(C2=NN(c3ccc(C(=O)N4CCN(c5ccccc5)CC4)cc3)C(=O)[C@@H]3CC=CC[C@H]23)cc1OCC.Cl` had a melting point of 146 to 147 °C.
Turning to `COc1ccc(C2=NN(Cc3ccc(C(=O)N4CCN(CCN5CCOCC5)CC4)cc3)C(=O)[C@H]3CC=CC[C@@H]23)c2c1OC(C)(C)C2.Cl.Cl` (relative stereo), the melting point lay in the range of 210 to 211 °C.
On to `COc1ccc(C2=NN(Cc3ccc(C(=O)N4CCN(c5cnccn5)CC4)cc3)C(=O)[C@H]3CC=CC[C@@H]23)c2c1OC(C)(C)C2.Cl.Cl` (relative stereo), for which the melting point was in the range of 124 to 126 °C.

As a reminder, the melting point is the temperature of the solid-liquid transition.
